Laboratory results reported in patent publication US10011571B2, “Preparation method for aromatic heterocyclic compound used as selective JAK3 and/or JAK1 kinase inhibitor and application of aromatic heterocyclic compound” (SHENZHEN CHIPSCREEN BIOSCIENCES, LTD., priority 2014, dated 2018).

What was measured:
JAK3 = JAK3 (Homo sapiens (Human), UniProt P52333); experiment: Z'-LYTE enzymatic activity detection, JAK3; type: biochemical; conditions: test compound 30 nM; for inhibition at 0.03 µM: read-out: JAK3 % inhibitory rate @30 nM
Procedure, shortened: (§1)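 GST-tagged human recombinant kinases with Z′-LYTE peptides (Tyr6 for JAK1, Tyr4 for JAK2 and JAK3), ATP from kit, reacted 1 h at room temperature; development 1 h, ratio 445/520 nm at 400 nm excitation gives phosphorylation. Inhibition vs solvent control at 30 nM (JAK2, JAK3) or 300 nM (JAK1); tofacitinib as positive control.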

JAK1 = JAK1 (Homo sapiens (Human), UniProt P23458); experiment: Z'-LYTE enzymatic activity detection, JAK1; type: biochemical; conditions: test compound 300 nM; for inhibition at 0.3 µM: read-out: JAK1 % inhibitory rate @300 nM
Procedure, shortened: as §1

JAK2 = JAK2 (Homo sapiens (Human), UniProt O60674); experiment: Z'-LYTE enzymatic activity detection, JAK2; type: biochemical; conditions: test compound 30 nM; for inhibition at 0.03 µM: read-out: JAK2 % inhibitory rate @30 nM
Procedure, shortened: as §1

HeLa cells = experiment: Cell growth activity assay (MTS), HeLa cell model; type: cell-based, human; parameters: activity: dose or concentration left out as unconfirmed; conditions: Homo sapiens, HeLa, 72 h; for activity: read-out: HeLa % growth rate
Procedure, shortened: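 HeLa human cervical cancer cells were plated at about 5000 cells/well in a 96-well plate. After 24 h, test compounds were added in concentration gradients (highest final concentration 40 μM), alongside a DMSO solvent control and a negative control. After another 72 h, the medium was replaced with 100 μL fresh medium plus 20 μL MTS/PMS (20:1). Plates were incubated 2 h at 37° C. and absorbance was read at 490 nm to give growth inhibition and GI50.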

JAK1, sequence (P23458 whole entry): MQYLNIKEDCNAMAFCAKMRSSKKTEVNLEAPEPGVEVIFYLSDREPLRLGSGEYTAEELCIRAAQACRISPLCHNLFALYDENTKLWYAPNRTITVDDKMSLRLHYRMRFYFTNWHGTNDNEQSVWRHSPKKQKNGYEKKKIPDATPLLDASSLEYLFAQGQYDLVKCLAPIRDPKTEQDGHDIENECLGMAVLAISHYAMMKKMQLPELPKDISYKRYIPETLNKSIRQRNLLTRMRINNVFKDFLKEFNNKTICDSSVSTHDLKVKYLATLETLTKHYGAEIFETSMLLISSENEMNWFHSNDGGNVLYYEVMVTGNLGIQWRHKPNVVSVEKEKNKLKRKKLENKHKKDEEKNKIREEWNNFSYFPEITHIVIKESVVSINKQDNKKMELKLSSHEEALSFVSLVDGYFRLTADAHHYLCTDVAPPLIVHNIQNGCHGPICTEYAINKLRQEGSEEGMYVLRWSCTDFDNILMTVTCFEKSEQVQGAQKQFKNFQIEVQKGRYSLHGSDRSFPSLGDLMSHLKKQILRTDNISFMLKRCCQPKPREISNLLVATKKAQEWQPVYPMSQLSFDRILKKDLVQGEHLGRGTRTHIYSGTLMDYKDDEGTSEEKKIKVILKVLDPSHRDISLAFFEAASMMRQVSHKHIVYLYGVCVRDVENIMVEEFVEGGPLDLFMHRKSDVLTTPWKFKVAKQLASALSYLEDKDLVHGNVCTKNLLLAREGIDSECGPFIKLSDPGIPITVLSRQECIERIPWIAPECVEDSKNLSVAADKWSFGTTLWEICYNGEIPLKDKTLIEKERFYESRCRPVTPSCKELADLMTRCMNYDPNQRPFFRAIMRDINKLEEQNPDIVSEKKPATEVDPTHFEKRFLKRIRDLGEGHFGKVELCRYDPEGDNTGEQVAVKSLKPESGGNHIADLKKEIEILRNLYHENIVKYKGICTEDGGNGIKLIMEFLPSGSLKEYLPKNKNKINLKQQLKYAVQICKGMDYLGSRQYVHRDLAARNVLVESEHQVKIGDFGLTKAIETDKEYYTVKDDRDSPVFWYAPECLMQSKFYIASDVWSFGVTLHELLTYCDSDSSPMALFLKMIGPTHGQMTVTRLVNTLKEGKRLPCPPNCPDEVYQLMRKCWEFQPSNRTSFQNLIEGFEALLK
JAK2, sequence (O60674 whole entry): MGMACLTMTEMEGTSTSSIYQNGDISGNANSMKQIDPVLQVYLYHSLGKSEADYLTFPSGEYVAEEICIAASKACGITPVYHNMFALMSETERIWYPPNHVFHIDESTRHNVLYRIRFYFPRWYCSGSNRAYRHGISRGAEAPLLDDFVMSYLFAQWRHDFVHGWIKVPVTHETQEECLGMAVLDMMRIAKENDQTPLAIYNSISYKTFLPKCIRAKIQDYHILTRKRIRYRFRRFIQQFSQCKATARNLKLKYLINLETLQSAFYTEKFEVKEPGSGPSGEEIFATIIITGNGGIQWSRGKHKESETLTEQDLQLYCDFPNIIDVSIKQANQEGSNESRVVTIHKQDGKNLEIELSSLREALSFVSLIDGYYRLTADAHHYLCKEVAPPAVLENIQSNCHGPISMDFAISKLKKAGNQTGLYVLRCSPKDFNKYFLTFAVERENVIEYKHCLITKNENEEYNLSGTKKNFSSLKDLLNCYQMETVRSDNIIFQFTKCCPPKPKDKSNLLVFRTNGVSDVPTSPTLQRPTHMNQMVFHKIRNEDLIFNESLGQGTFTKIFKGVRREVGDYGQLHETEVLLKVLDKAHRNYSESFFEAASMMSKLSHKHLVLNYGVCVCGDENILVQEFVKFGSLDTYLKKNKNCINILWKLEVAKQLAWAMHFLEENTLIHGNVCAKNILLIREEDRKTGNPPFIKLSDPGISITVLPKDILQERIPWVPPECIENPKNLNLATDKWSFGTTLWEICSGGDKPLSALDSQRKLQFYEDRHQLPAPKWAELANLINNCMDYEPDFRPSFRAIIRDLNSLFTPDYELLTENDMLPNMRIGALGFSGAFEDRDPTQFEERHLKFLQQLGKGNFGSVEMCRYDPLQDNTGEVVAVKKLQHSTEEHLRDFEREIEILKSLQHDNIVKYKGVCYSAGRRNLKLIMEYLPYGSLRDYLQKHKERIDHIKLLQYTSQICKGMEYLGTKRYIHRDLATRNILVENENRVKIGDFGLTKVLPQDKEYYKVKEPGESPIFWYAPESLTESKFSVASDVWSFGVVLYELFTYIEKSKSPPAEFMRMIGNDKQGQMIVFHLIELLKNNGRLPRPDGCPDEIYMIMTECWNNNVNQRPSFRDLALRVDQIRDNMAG
JAK3, sequence (P52333 whole entry): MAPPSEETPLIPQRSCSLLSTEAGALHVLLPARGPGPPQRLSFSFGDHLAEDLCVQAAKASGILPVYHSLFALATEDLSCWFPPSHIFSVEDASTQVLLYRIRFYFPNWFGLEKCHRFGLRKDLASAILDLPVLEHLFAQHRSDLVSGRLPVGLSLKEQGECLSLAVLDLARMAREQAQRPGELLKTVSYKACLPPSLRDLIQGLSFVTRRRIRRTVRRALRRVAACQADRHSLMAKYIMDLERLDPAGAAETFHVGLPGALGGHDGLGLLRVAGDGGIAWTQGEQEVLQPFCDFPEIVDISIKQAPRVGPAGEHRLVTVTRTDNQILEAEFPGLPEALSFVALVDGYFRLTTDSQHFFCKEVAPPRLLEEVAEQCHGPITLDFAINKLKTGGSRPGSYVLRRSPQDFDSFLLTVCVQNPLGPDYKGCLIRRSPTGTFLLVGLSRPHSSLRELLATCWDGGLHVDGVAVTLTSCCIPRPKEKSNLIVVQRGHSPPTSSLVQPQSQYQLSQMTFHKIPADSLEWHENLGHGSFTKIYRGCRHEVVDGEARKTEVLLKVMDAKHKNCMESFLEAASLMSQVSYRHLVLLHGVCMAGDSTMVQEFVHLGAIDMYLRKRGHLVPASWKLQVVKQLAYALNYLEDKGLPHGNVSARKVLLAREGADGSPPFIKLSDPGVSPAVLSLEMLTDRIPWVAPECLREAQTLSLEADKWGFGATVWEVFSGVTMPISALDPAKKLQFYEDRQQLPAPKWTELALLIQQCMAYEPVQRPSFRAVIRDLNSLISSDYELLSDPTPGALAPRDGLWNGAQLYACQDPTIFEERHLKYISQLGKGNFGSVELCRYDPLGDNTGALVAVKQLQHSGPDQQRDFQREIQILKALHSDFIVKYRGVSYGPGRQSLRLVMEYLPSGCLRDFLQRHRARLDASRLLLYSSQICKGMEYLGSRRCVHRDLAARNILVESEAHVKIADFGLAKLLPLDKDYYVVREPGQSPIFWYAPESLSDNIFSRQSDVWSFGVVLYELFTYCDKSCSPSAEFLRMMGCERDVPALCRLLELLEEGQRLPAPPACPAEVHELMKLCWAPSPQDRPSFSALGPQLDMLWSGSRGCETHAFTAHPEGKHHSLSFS

SMILES | JAK3 RV (ratio between the inhibitory rate of the test compound and that of Xeljanz) (JAK3) | inhibition at 0.03 µM (JAK3) [%] | JAK1 RV (ratio between the inhibitory rate of the test compound and that of Xeljanz) (JAK1) | inhibition at 0.3 µM (JAK1) [%] | JAK2 RV (ratio between the inhibitory rate of the test compound and that of Xeljanz) (JAK2) | inhibition at 0.03 µM (JAK2) [%] | GI50 (HeLa cells) [µM] | activity (HeLa cells) [%]
C=CC(=O)N(C)c1cc(Nc2ncc(Cl)c(NCCCNC(=O)c3ccc(C#N)cc3)n2)ccc1F [Example 7, N-(3-(5-chloro-2-(4-fluoro-3-(N-methylacrylamido)phenylamino)pyrimidinyl-4-amino)propyl)-4-cyano-benzamide] | 0.84 | 63 | 0.58 | 56 | 0.08 | 5 | > 40 | 98
C=CC(=O)N(C)c1cc(Nc2ncc(Cl)c(NCCCNC(=O)c3ccc(C(F)(F)F)cc3)n2)ccc1F [Example 22, N-(3-(5-chloro-2-(4-fluoro-3-(N-methylacrylamido)phenylamino)pyrimidinyl-4-amino)propyl)-4-trifluoromethylbenzamide] | 0.82 | 75 | 0.33 | 18 |  | 0 | > 40 | 78
C=CC(=O)N(C)c1cc(Nc2ncc(Cl)c(NCCCNC(=O)c3ccc(F)cc3)n2)ccc1F [Example 23, N-(3-(5-chloro-2-(4-fluoro-3-(N-methylacrylamido)phenylamino)pyrimidinyl-4-amino)propyl)-4-fluorobenzamide] | 0.88 | 81 | 0.35 | 19 |  | 0 |  | 96
